Experimental findings from PMC2870997 (Bioorganic & medicinal chemistry letters, 2009) are described below.

The test relates to PKA reporter Reg-F[1]:Cat-F[2]. In words: Protein-fragment complementation. Type of test: cell-based. To be noted: β2AR-HEK293 cells.

Molecules are shown by their SMILES.

As to `CC(C)NCC(O)c1ccc(O)c(O)c1` (centres unmarked) [Analogue 19, isoproterenol], the “Effect on luminescence by β2AR activation (control)” value (1 μM, 30 min) was “able to reduce luminescence”. In the case of `Cc1ccc(OCC(O)C(C)NC(C)C)c2c1CCC2` (centres unmarked) [Analogue 20, IC118551], under “1 μM pretreatment”, the “Effect of pretreatment on the response to 19 (control)” value is “capable of preventing the effects of 19”.
